# Counter-ions that a name gives are not always drawn.
# Target: T1, human alpha 1a adrenergic receptor (Homo sapiens, UniProt P35348)
# T1 sequence (P35348 1-466): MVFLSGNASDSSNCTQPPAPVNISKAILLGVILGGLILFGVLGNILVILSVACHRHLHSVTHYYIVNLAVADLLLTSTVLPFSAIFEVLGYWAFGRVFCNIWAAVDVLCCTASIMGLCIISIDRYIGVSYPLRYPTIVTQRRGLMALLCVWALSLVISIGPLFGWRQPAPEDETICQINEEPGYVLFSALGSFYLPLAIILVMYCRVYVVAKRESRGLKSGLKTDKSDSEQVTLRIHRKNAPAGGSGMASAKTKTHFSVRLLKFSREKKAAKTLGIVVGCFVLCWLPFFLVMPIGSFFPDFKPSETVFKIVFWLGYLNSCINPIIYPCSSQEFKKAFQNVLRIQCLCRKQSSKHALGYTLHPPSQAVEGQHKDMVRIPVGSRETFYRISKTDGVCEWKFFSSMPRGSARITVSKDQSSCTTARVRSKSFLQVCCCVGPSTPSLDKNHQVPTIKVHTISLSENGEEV
# Experiment: Screening assay: alpha 1a adrenergic receptor binding ([125I]-HEAT competition)
# Settings: membranes from stably transfected human alpha 1a cell line (ATCC CRL 11140), 100 pM [125I]-HEAT
# Description: Screening Assay: Alpha 1a Adrenergic Receptor Binding
# These competition binding reactions (total volume=200 μl) contained 50 mM Tris-HCl pH. […] Reactions were incubated at room temperature for one hour with shaking. Reactions were filtered onto Whatman GF/C glass fiber filters with a Inotec 96 well cell harvester. Filters were washed three times with ice cold buffer and bound radioactivity was determined (Ki).
row,SMILES,Ki [nM]
1,"Cc1ccc(C2(c3ccc(C)cc3)NC(=O)N(CCCN3CCC4(CC3)C(=O)Nc3ccccc34)C2=O)cc1 [Compound 21, 3-{3-(spiro[3H-indole-3,4′-piperidin]-2(1H)-on-1′-yl)propyl}-5,5-bis(4-methylphenyl)-imidazolin-2,4-dione hydrochloride]",< 20
2,"Cc1ccc(C2(c3ccccc3)NC(=O)N(CCCN3CCC(C#N)(c4ccccc4)CC3)C2=O)cc1 (racemic) [Compound 11, (+/−)-3-{3-[4-phenyl4-cyanopiperidin-1-yl]propyl-}5-(4-methylphenyl)-5-phenyl-imidazolin-2,4-dione trifluoroacetate]",< 20
3,"Cc1ccc(C2(c3ccc(C)cc3)NC(=O)N(CCCN3CCC4(CC3)OC(=O)Nc3ccc(F)cc34)C2=O)cc1 [Compound 23, 3-{3-(6-fluoro-spiro[4H-3,1-benzoxazine4,4′-piperidin]-2(1H)-on-1′-yl)propyl}bis(4-methylphenyl)-imidazolin-2,4-dione]",< 20
4,"Cc1ccc(C2(c3ccc(C)cc3)NC(=O)N(CCCN3CCC4(C=Cc5ccccc54)CC3)C2=O)cc1 [Compound 4, 3-{3-(spiro[1H-indeno-1,4′-piperidin]-1′-yl)propyl}-5,5-bis(4-methylphenyl)-imidazolin-2,4-dione]",< 20
5,"Cc1ccc(C2(c3ccc(C)cc3)NC(=O)N(CCCN3CCN(c4ccccc4C(N)=O)CC3)C2=O)cc1 [Compound 25, 3-{3-[4-(2-aminocarbonylphenyl)-piperazin-1-yl]propyl}-5,5-bis(4-methylphenyl)-imidazolin-2,4-dione dihydrochloride]",< 20
6,"Cc1ccc(C2(c3ccc(C)cc3)NC(=O)N(CCCN3CCC4(CC3)OC(=O)N(C)c3ccc(Cl)cc34)C2=O)cc1 [Compound 8, 3-{3-(1-methyl-6-chloro-spiro[4H-3,1-benzoxazine-4,4′-piperidin]-2(1H)-on-1′yl)propyl}5,5-bis(4-methylphenyl)-imidazolin-2,4-dione]",< 20
7,"Cc1ccc(C2(c3ccc(C)cc3)NC(=O)N(CCCN3CCN(c4ccccc4C#N)CC3)C2=O)cc1 [Compound 27, 3-{3-[4-(2-cyanophenyl)-piperazin-1-yl]propyl}-5,5-bis(4-methylphenyl)-imidazolin-2,4-dione hydrochloride]",< 20
8,Cc1ccc(C2(c3ccc(C)cc3)NC(=O)N(CCCN3CCC(c4ccc(F)cc4C#N)CC3)C2=O)cc1 [Compound 26],< 20
9,"Cc1ccc(C2(c3ccc(C)cc3)NC(=O)N(CCCN3CCC4(CC3)C(=O)Cc3ccccc34)C2=O)cc1 [Compound 5, 3-{3-(2,3-dihydro-spiro[indeno-1,4′-piperidin]-2(3H)-on-1′-yl)propyl}-5,5-bis(4-methylphenyl)-imidazolin-2,4-dione]",< 20
10,CCCCCC1(c2ccc(C)cc2)NC(=O)N(CCCN2CCC(C#N)(c3ccccc3C)CC2)C1=O (racemic) [Compound 16],< 20
11,Cc1ccc(C2(c3ccc(C)cc3)NC(=O)N(CCCN3CCC4(CC3)OC(=O)N(C)c3ccccc34)C2=O)cc1 [Compound 9],< 20
12,"Cc1ccc(C2(c3ccccn3)NC(=O)N(CCCN3CCC(C#N)(c4ccccc4C)CC3)C2=O)cc1 (racemic) [Compound 13, (+/−)-3-{3-[4-(2-methylphenyl)-4-cyanopiperidin-1-yl]propyl}-5-(4-methylphenyl)-5-(2-pyridyl)-imidazolin-2,4-dione]",< 20
13,"Cc1ccc(C2(c3ccc(C)cc3)NC(=O)N(CCCN3CCC4(CC3)OC(=O)Nc3ccc(Cl)cc34)C2=O)cc1 [Compound 7, 3-{3-(6-chloro-spiro[4H-3,1-benzoxazine-4,4′-piperidin]-2(1H)-on-1′-yl)propyl}-5,5-bis(4-methylphenyl)-imidazolin-2,4-dione]",< 20
14,"Cc1ccc(C2(c3ccc(C)cc3)NC(=O)N(CCCN3CCC4(CC3)OC(=O)N(CC(F)(F)F)c3ccc(Cl)cc34)C2=O)cc1 [Compound 29, 3-{3-[1-(2,2,2-trifluoroethyl)-6-chloro-spiro[4H-3,1-benzoxazine-4,4′-piperidin]-2(1H)-on-1′-yl]propyl}-5,5-bis(4-methylphenyl)-imidazolin-2,4-dione]",< 20
15,"CN1C(=O)OC2(CCN(CCCN3C(=O)NC(c4ccc(Cl)cc4)(c4ccc(Cl)cc4)C3=O)CC2)c2cc(Cl)ccc21 [Compound 14, 3-{3-(1-methyl-6-chloro-spiro[4H-3,1-benzoxazine-4,4′-piperidin]-2(1H)-on-1′-yl)propyl}1-5,5-bis(4-chlorophenyl)-imidazolin-2,4-dione]",< 20
16,"Cc1ccc(C2(c3ccc(C)cc3)NC(=O)N(CCCN3CCC4(CC3)OC(=O)Nc3ccccc34)C2=O)cc1 [Compound 6, 3-{3-(spiro[4H-3,1-benzoxazine-4,4′-piperidin]-2(1H)-on-1′-yl)propyl}-5,5-bis(4-methylphenyl)-imidazolin-2,4-dione]",< 20
17,"Cc1ccccc1C1(C#N)CCN(CCCN2C(=O)NC(c3ccc(F)cc3)(c3ccc(F)cc3)C2=O)CC1 [Compound 12, 3-{3-[4-(2-methylphenyl)-4-cyanopiperidin-1-yl]propyl}-5,5-bis(4-fluorophenyl)-imidazolin-2,4-dione hydrochloride]",< 20
18,"CCCCCC1(c2ccc(F)c(F)c2)NC(=O)N(CCCN2CCC(C#N)(c3ccccc3C)CC2)C1=O (racemic) [Compound 17, (+/−)-3-{3-[4-(2-methylphenyl)-4-cyanopiperidin-1-yl]propyl}-5-pentyl-5-(3,4-difluoro-phenyl)-imdazolin-2,4-dione hydrochloride]",< 20
19,"Cc1ccc(C2(C(C)C)NC(=O)N(CCCN3CCC(C#N)(c4ccccc4C)CC3)C2=O)cc1 (racemic) [Compound 31, (+/−)-3-{3-[4-(2-methylphenyl)4-cyanopiperidin-1-yl]propyl}-5-isopropyl-5-(4-methylphenyl)-imidazolin-2,4-dione hydrochloride]",< 20
20,"Cc1ccc(C2(c3ccc(C)cc3)NC(=O)N(CCCN3CCC(c4ccccn4)CC3)C2=O)cc1 [Compound 3, 3-{3-[4-(2-Pyridyl)piperidin-1-yl]propyl}-5,5-bis(4-methylphenyl)-imidazolin-2,4-dione]",< 20
21,"Cc1ccc(C2(c3ccc(C)cc3)C(=O)N(CCCN3CCC(C#N)(c4ccccc4C)CC3)C(=O)N2C)cc1 [Compound 36, 1-Methyl-3-{3-[4-(2-methylphenyl)-4-cyanopiperidin-1-yl]propyl}-bis-5,5-(4-methylphenyl)-imidazolin-2,4-dione]",< 20
22,"Cc1ccc(C2(c3ccc(C)cc3)NC(=O)N(CCCN3CCC(C#N)(c4ccccc4)CC3)C2=O)cc1 [Compound 1, 3-[3-(4-Phenyl-4-cyanopiperidin-1-yl)propyl]-5,5-bis(4-methylphenyl)-imidazolin-2,4-dione]",< 20
23,"Cc1ccc(C2(c3ccc(C)cc3)NC(=O)N(CCCCN3CCC4(C=Cc5ccccc54)CC3)C2=O)cc1 [Compound 28, 3-{4-(spiro[indeno-1,4′-piperidin]-1′-yl)butyl}-5,5-bis(4-methylphenyl)-imidazolin-2,4-dione]",< 20
24,"N#CC1(c2ccccc2)CCN(CCCN2C(=O)NC(c3ccc(Cl)cc3)(c3ccc(Cl)cc3)C2=O)CC1 [Compound 10, 3-{3-[4-phenyl-4-cyanopiperidin-1-yl]propyl}-5,5-bis(4-chlorophenyl)-imidazolin-2,4-dione hydrochloride]",< 20

# System: not given
# Experiment: not given
# Settings: not given
row,SMILES,melting point [°C]
1,"Cc1ccc(C2(c3ccc(C)cc3)NC(=O)N(CCCN3CCC(n4c(=O)[nH]c5cc(Cl)ccc54)CC3)C2=O)cc1 [Compound 34, 3-{3-[4-(5-chloro-2-oxo-1-benzimidazolinyl)piperidin-1-yl]propyl}-5,5-bis(4-methylphenyl)-imidazolin-2,4-dione]",144 to 155
2,"Cc1ccc(C2(c3ccc(C)cc3)NC(=O)N(CCCN3CCC4(CC3)C(=O)Nc3ccccc34)C2=O)cc1 (as salt: hydrochloride) [Compound 21, 3-{3-(spiro[3H-indole-3,4′-piperidin]-2(1H)-on-1′-yl)propyl}-5,5-bis(4-methylphenyl)-imidazolin-2,4-dione hydrochloride]",> 210
3,"Cc1ccc(C2(c3ccc(C)cc3)NC(=O)N(CCCN3CCN(c4ccccc4C#N)CC3)C2=O)cc1 (as salt: hydrochloride) [Compound 27, 3-{3-[4-(2-cyanophenyl)-piperazin-1-yl]propyl}-5,5-bis(4-methylphenyl)-imidazolin-2,4-dione hydrochloride]",236
4,CC1(c2ccccc2)NC(=O)N(CCCN2CCC(C#N)(c3ccccc3)CC2)C1=O (racemic) (as salt: hydrochloride),222 to 223
5,COC(=O)C1CN(CCCN2C(=O)NC(c3ccc(C)cc3)(c3ccc(C)cc3)C2=O)CCC1Nc1ccccc1Cl.Cl (racemic),160 to 163
6,COCN1C(=O)N(CCCN2CCC(C#N)(c3ccccc3C)CC2)C(=O)C1(c1ccc(C)cc1)c1ccc(C)cc1,53 to 55
7,"CCOC(=O)CN1C(=O)N(CCCN2CCC(C#N)(c3ccccc3C)CC2)C(=O)C1(c1ccc(C)cc1)c1ccc(C)cc1 [Compound 35, 1 -Ethoxycarbonylmethyl-3-{3-[4-(2-methylphenyl)-4-cyanopiperidin-1-yl]propyl}bis-5,5-(4-methylphenyl)-imidazolin-2,4-dione]",63 to 65

# Source: patent US6436962B1, “Arylhydantoin derivatives and uses thereof” (Merck & Co., Inc., priority 1999, dated 2002)
